Converted amounts (≈) assume the structure as drawn. Where two headings read alike, the source gives them in different places.

Test [1] deals with Rabbit isolated mesenteric artery. Kind of test: Rabbit isolated mesenteric artery: relaxation of contractions due to KCl. Also on record: species or system rabbit (male New Zealand White). As to conditions: for IC50: Oryctolagus cuniculus, 4-9 tissues. How it is done:
(2) Rabbit isolated mesenteric artery. Mesenteric arteries (3 mm rings) were removed from male New Zealand White rabbits and mounted, at a resting tension of 1.5-2.0 g, in a 10 ml organ bath containing a Ringer solution, at 37° C., of the following composition (mM): NaCl 120.8; KCl 5.9; CaCl2 2.5; MgCl2 1.2; HEPES 5.8; glucose 11.5. The bathing solution was bubbled with a 95% oxygen and 5% carbon dioxide mixture. Each preparation was allowed 1-11/2 h to equilibrate before the addition of either 30 or 90 mM KCl to contract the tissue. The ability of test compound to relax the sustained contraction due to KCl was determined by assessing the % reduction (mean ±s.e.m.; 4-9 tissues) produced by varying concentrations of test compound.
(2) Rabbit Isolated Mesenteric Artery: effect of compound 1 on contractions due to 30 and 90 mM KCl.
IC50 is the concentration of compound 1 halving the contraction due to KCl; parenthesis indicate 95% fiducial limits.

The next test concerns Rat isolated colon. Kind of test: Rat isolated colon: inhibition of spontaneous contractions. The note with it: 10 min, cumulative dosing at 10 min intervals, graphically determined, read-out: ID50 (concentration reducing amplitude of spontaneous contractions by 50%). Further details: species or system rat (male Wister). The method, then: Rat isolated colon. Male Wister rats (Charles River U.K.) were killed by a blow on the head and a 2 cm segment of proximal colon excised. After gently washing free any luminal contents the tissue was suspended longitudinally in a 10 ml organ bath containing Krebs solution of the following composition: NaCl 118.1 mM, KH2 PO4 1.18 mM, NaHCO3 25 mM, KCl 4.69 mM, MgSO4 1.64 mM, CaCl2 2.52 mM, Glucose 11.1 mM. This solution was maintained at 37° C. and constantly bubbled with 95% O2 : 5% CO2. Isometric contractions were recorded from the tissue with an initial tension of 1 g being applied.
The inhibitory effects of compounds 1+2 were assessed from the reduction in amplitude of the spontaneous contractions of the colon. Cumulative dose-response curves were constructed with the compounds being applied to the bath at intervals of 10 mins. ID50 (concentration of drug reducing amplitude of contractions by 50%) was graphically determined from the dose-response curve.
Rat isolated colon : effect of compounds 1 and 2 on spontaneous contractions

In test [2] the test system is potassium depolarised rat uterus. Briefly: Relaxation of potassium depolarised rat uterus. Also on record: species or system rat (female Sprague Dawley). The note with it: 7 preparations, relative to full relaxation with isoprenaline, read-out: % maximum relaxation. How it is done:
Relaxation of Potassium Depolarised Rat Uterus
Female Sprague Dawley rats (120-160 g) were sacrificed and the uterine horns removed. Each horn was cut longitudinally to give a sheet of muscle which was further subdivided to give two preparations (i.e. 4 from each animal). Each tissue was mounted in a 10 ml organ bath containing normal Krebs buffer at 32° C. and gassed with 95% O2 -5% CO2. During an equilibration period of approximately 45 min the tissues were repeatedly stretched and washed to maintain a resting tension of 0.2 g. An increase in tension was induced by exchanging the Krebs buffer for one in which the sodium ions were replaced by the equivalent amount of potassium ions.
This caused the tissues to contract followed by a slow relaxation which equilibrated at a level above the initial resting level. A cumulative concentration effect curve to compound 1 was then carried out until the response to the final bath concentration (10^-4 M) had stabilised. Incremental concentrations of isoprenaline were then added until the tissues had fully relaxed. Results are expressed as a percentage of this maximum relaxation.
7 preparations were used.

The subject of a further test is conscious guinea-pig. Kind of test: Guinea pig asphyxic collapse model in vivo (histamine aerosol). Also on record: species or system guinea pig (female Dunkin-Hartley). As to conditions: 5 mg/kg p.o., 30 min pretreatment, control 90 ± 10. From the text: This model is based on the method described by Herxheimer (Br.J.Pharm.50, 314 (1974)]. Conscious female guinea pigs (Dunkin-Hartley strain, 500-700 g body weight) were placed individually into a Perspex chamber of approximately 8 litres capacity, and the animals were challenged with an histamine aerosol. The standard histamine aerosol was generated using a Monaghan 675 ultrasonic nebulizer (power setting 7) from a 5×10^-5 m solution of histamine acid phosphate in distilled water. After obtaining satisfactory aerosol generation, the aerosol was passed into the chamber for 10 seconds and the time was recorded from introduction of the aerosol until the guinea pig collapsed (termed asphyxic collapse). The animal was rapidly removed and allowed to recover. In this way, the mean time to asphyxic collapse for a group of guinea pigs was determined.
Compounds were administered orally to groups of animals and the degree of protection against histamine-induced asphyxic collapse was determined by the percentage increase in mean time to asphyxic collapse of a compound-treated group to asphyxic collapse for control groups was around 80-100 seconds. […]
The significance of any increase in the mean asphyxic collapse time of a compound-treated group of animals over that of a vehicle-treated control group was determined using students "t" test. […]

The next test deals with Rat isolated portal vein. Kind of test: Rat isolated portal vein: inhibition of spontaneous contractions and of contractions due to added calcium. As to conditions: for IC50: Rattus norvegicus, 0.25 h, 15 min contact time, 6-9 tissues, 95% fiducial limits in next line. Also on record: species or system rat (male Sprague Dawley). The method, then: (1) Rat isolated portal vein. Male Sprague Dawley rats (250-350 g) were killed by cervical dislocation. Portal veins (2-3cm in length) were set up under 0.8-1 g tension in a 10 ml organ bath containing Krebs-Henseleit solution, at 37° C., of the following composition (mM): NaCl 118, NaHCO3 25, glucose 5, KH2 PO4 1.18, KCl 4.69, MgSO4 0.59, CaCl2.H2 O 1.87. The tissue was aerated with a 95% oxygen and 5% carbon dioxide mixture. Isometric tension was recorded using a Devices strain gauge and recorder. Each preparation was allowed 1h to equilibrate before the addition of test compound. The ability of a compound to inhibit the contractions due to added calcium (3 mM CaCl2) was determined in tissues bathed in Krebs-Henseleit solution containing 0.05 mM CaCl2 (in order to reduce spontaneous contractions). Then percentage inhibition (mean ±s.e.m.; 6-9 tissues) of the amplitude of the spontaneous contractions, and contractions due to added calcium, was determined after 15 min contact time with test compound.
(1) Rat Isolated Portal Vein: effect of compound 1 on spontaneous contractions and those due to added calcium.
IC50 is concentration of compound reducing contractions by 50%; parenthesis indicate 95% fiducial limits.

Turning to `CC1(C)Oc2ccc(C#N)cc2[C@@H](N2CCCC2=O)[C@@H]1O` (relative stereo) [Compound 1, 6-cyano-3,4-dihydro-2,2-dimethyl-trans-4-(2-oxo-1-pyrrolidinyl)-2H-benzo[b]pyran-3-ol], the IC50 in test [1] (30 mM KCl, 95% fiducial limits in next line, read-out: IC50 30 mM KCl contraction) was 510 nM; in test [1] (90 mM KCl, read-out: IC50 90 mM KCl contraction), greater than 10000 nM; in the test with Rat isolated colon it was 0.12 µg/mL (≈ 0.419 µM); with Rat isolated portal vein (contractions due to added calcium (3 mM CaCl2), read-out: IC50 Ca^2+ (3 mM) contractions), 150 nM; in the test with Rat isolated portal vein (spontaneous contractions, read-out: IC50 Spontaneous contractions) it was 120 nM. In addition, the “effect against a high concentration of KCl” value in test [1] (high concentration of KCl) was “effectiveness of compound 1 against a high concentration of KCl”. Also, the “antagonism of contractions due to potassium” value in test [1] (partially (low KCl) vs fully (high KCl) depolarising concentration) is “antagonises the contractions due to a partially, but not a fully, depolarising concentration of potassium”. Also, the activation at 100 µM in test [2] (1 × 10^-4 M) worked out at 61 ± 6%. The activation at 10 µM in test [2] (1 × 10^-5 M) turned out to be 18 ± 3%. In test [2] (3 × 10^-5 M), the activation at 30 µM was 31 ± 3%. Besides, the activation at 3 µM in test [2] (3 × 10^-6 M) was 6 ± 2%. In addition, the Mean collapse time with conscious guinea-pig (N=5, *p < 0.05) worked out at 154 ± 26 s. For the same molecule, the “relative potency, spontaneous contractions vs those due to added calcium” value in the test on Rat isolated portal vein (spontaneous contractions and those due to added calcium) was “equipotent”.
With `CC1(C)Oc2ccc(Cl)cc2[C@@H](N2CCCC2=O)[C@@H]1O` (relative stereo) [Compound 2, 6-chloro-3,4-dihydro-2,2-dimethyl-trans-4-(2-oxo-1-pyrrolidinyl)-2H-benzo[b]pyran-3-ol], the IC50 with Rat isolated colon was found to be 1.7 µg/mL (≈ 5.75 µM).
As to `CCN(C(C)=O)[C@@H]1c2cc(C#N)ccc2OC(C)(C)[C@H]1O` (relative stereo) [Compound 4, trans-4-(N-acetyl)-ethylamino-6-cyano-3,4-dihydro-2,2-dimethyl-2H-benzo[b]pyran-3-ol], the Mean collapse time in the test with conscious guinea-pig (N=4, **p < 0.01) was determined as 176 ± 25 s.
